{"source": "patent US20150038541A1", "about": "“COMPOSITION AND METHODS FOR CELL MODULATION” (APOSIGNAL BIOSCIENCE LLC, priority 2012, published 2015)", "key": {"HeLa cells [1]": {"test_system": "HeLa cells", "test": "Cell proliferation (growth rate, crystal violet) of HeLa cells with AS-7 by itself", "format": "cell-based, human", "method": "Cell lines were plated at a sparse density in order to measure the rate of growth over a several day interval and obviate the effect of limited culture surface on the growth rate. The impact of AS-7 on cell proliferation became clear after two days and was dramatic after several days. While the impact of AS-7 was modest after two days, it became substantial after more than two days because the reduction in growth rate has the greatest impact on cell number after the cultures have expanded by several population doublings. […] AS-7 inhibited the rate of cell proliferation by 67% at a concentration of approximately 10 μM (FIG. 10). […] The following cell lines were used to determine the effect of AS-7 on the rate of proliferation: HeLa, melanoma […], ovarian A2780, and breast T47D. All cell line were grown in culture medium (RPMI 1640 for the breast cancer cells and Dulbecco's modified Eagle's medium for the other cell lines) containing 10% heat inactivated fetal bovine serum without antibiotics (penicillin and streptomycin)."}, "ovarian A2780 cells": {"test_system": "ovarian A2780 cells", "test": "Cell proliferation (growth rate, crystal violet) of ovarian A2780 cells with AS-7 by itself", "format": "cell-based, human", "conditions": "10 μM AS-7, vehicle doubling time 1.0 days", "method": "(§1) To examine the effect of AS-7 on the growth of several different cell lines, AS-7 at 10 μM was added to the culture medium the day after seeding the cells. The following cell lines were used to determine the effect of AS-7 on the rate of proliferation: HeLa, melanoma A2620, ovarian A2780, and breast T47D. All cell line were grown in culture medium (RPMI 1640 for the breast cancer cells and Dulbecco's modified Eagle's medium for the other cell lines) containing 10% heat inactivated fetal bovine serum without antibiotics (penicillin and streptomycin). […] The doubling times in HeLa, melanoma, ovarian and breast cancer derived cells were 0.9, 2.5, 1.0, and 1.4 days, respectively. AS-7 increased the doubling times of the HeLa, melanoma, ovarian, and breast cancer derived cells by 1.3, 1.3, 1.6, and 3.1 fold, respectively (FIGS. 11 through 14)."}, "HeLa cells [2]": {"test_system": "HeLa cells", "test": "Glucose utilization and acid production in HeLa cell culture medium", "format": "cell-based, human", "conditions": "10 μM AS-7, after 5 days", "method": "FIG. 19 illustrates that AS-7 increases glucose utilization and acid production in HeLa cells. HeLa cells were cultured (100 mm diameter plates) in medium containing 4.5 mg/ml glucose at pH 7.4. After 5 days medium glucose was determined by standard methodology and the pH of the medium was measured with a pH meter.\nBecause it was repeatedly observed that AS-7 by itself decreased the pH of the culture medium, it was hypothesized that AS-7 might stimulate glucose utilization and the production of lactic acid, which is a major acidic product of glucose metabolism. HeLa cells were cultured in 100 millimeter diameter tissue culture plates in order to monitor the pH and the glucose concentration of the culture medium. Glucose was quantified with a glucose test strip and meter, as commonly used to monitor fluctuations in blood glucose. A pH meter was used to record the pH of the medium. Control cultures (“Control”) were treated with the appropriate amount of the vehicle used dissolve AS-7. Treated cultures (“AS-7”) incubated with 10 μM AS-7."}, "T47D cells": {"test_system": "T47D cells", "test": "MTS cell viability of breast cancer T47D cells, bortezomib with or without AS-7", "format": "cell-based, human", "conditions": "10 μM AS-7, data not shown", "method": "(§2) Breast cancer derived cell lines, T47D and 159C, were seeded in a 96 well tissue culture plate (2000 cells per well). The significance of these two lines of breast cancer derived cell lines is that the T47D cells positive for three markers used to optimize the chemotherapeutic treatment, namely HER2 receptor, estrogen receptor, and progesterone receptor. By contrast to the T47D cells, the 159C cells are negative for the three markers. The compounds, 10 μM AS-7 and a range of bortezomib (BioVision, Inc., Milpitas, Calif.) concentrations were added the following day. After 48 hours, MTS was added and absorbance was measured at 490 nm."}, "Melanoma A2620 cells [3]": {"test_system": "Melanoma A2620 cells", "test": "Cell proliferation (growth rate, crystal violet) of melanoma A2620 cells with AS-7 by itself", "format": "cell-based, human", "conditions": "10 μM AS-7, vehicle doubling time 2.5 days", "method": "as §1"}, "Melanoma A2620 cells [4]": {"test_system": "Melanoma A2620 cells", "test": "Crystal violet cell viability of melanoma A2620 cells, bortezomib with or without AS-7 (72 hours)", "format": "cell-based, human", "conditions": "10 μM AS-7", "method": "Melanoma A2620 cells were seeded in a 96 well tissue culture plate (2000 cells per well). The compounds, 10 μM AS-7 and bortezomib at the concentrations indicated in FIG. 8 were added the following day. […] Values are relative to controls that contained only the vehicle in which the drugs were dissolved. Vehicle had no effect on cell viability."}, "159C cells": {"test_system": "159C cells", "test": "MTS cell viability of breast cancer 159C cells, bortezomib with or without AS-7", "format": "cell-based", "conditions": "10 μM AS-7, data not shown", "method": "as §2"}, "breast T47D cells": {"test_system": "breast T47D cells", "test": "FACS cell cycle analysis after propidium iodide staining of breast T47D cells", "format": "cell-based, human", "conditions": "10 μM AS-7", "method": "FIG. 16 illustrates that AS-7 evokes accumulation of breast T47D cells in the G0-G1 phase of the cell cycle. T47D cells were harvested one, two, or three days after treatment with or without AS-7, stained with propidium iodide and subjected to analysis by FACS (Fluorescence Activated Cell Sorter).\nA single addition of 10 μM AS-7 for 1 day to 7 or more days was sufficient to evoke accumulation in the Go-G1 phase of the cell cycle (FIGS. 15 and 16) (data not shown). […] HeLa cells were treated with nocodazole (100 ng/ml) for 12 h which evoked accumulation of rounded, loosely attached cells in mitosis. The mitotic cells were harvested and treated with or without 10 μM AS-7 in the absence of nocodazole (Released, 16 hours)."}}}
{"smiles": "N#Cc1cccc(C(C(=O)NCC(c2ccccc2)c2ccccc2)N(CCc2c[nH]cn2)C(=O)c2ccccc2C(=O)c2ccccc2)c1", "note": "(stereo not shown) [AS-7]", "values": [{"measurement": "rate of growth of HeLa cells", "setting": "HeLa cells [1]; AS-7 alone", "result": "moderately decreased"}, {"measurement": "cell viability, microscopic observation of the cultures", "setting": "HeLa cells [1]; AS-7 by itself, each of the cancer-derived cell lines tested", "result": "did not decrease cell viability"}, {"measurement": "inhibition of the rate of cell proliferation", "setting": "HeLa cells [1]; HeLa cells (FIG. 10), approximately 10 μM AS-7", "result": 67, "unit": "%"}, {"measurement": "increase of doubling time", "setting": "HeLa cells [1]; HeLa cells, 10 μM AS-7, vehicle doubling time 0.9 days", "result": 1.3, "unit": "fold"}, {"measurement": "IC50", "setting": "HeLa cells [1]; Homo sapiens, HeLa cells (FIG. 10), AS-7 by itself, read-out: IC50 for growth inhibition", "result": "~7", "unit": "µM"}, {"measurement": "increase of doubling time", "setting": "ovarian A2780 cells", "result": 1.6, "unit": "fold"}, {"measurement": "glucose concentration of the culture medium relative to control", "setting": "HeLa cells [2]", "result": "significantly decreased"}, {"measurement": "pH of the culture medium relative to control", "setting": "HeLa cells [2]", "result": "significantly decreased"}, {"measurement": "potentiation of the cytotoxic action of bortezomib", "setting": "T47D cells", "result": "markedly potentiated"}, {"measurement": "increase of doubling time", "setting": "Melanoma A2620 cells [3]", "result": 1.3, "unit": "fold"}, {"measurement": "increase in potency of the cytotoxic action of bortezomib by AS-7", "setting": "Melanoma A2620 cells [4]", "result": "approximately three"}, {"measurement": "potentiation of the cytotoxic action of bortezomib", "setting": "159C cells", "result": "markedly potentiated"}, {"measurement": "cell cycle distribution (FACS, propidium iodide)", "setting": "breast T47D cells", "result": "evoked the accumulation"}]}
